{"source": "patent US10799590B2", "about": "“Compositions containing a bitter tastant and at least one sophorolipid, and methods of reducing bitter taste attributed to a bitter tastant in an edible composition” (The United States of America, as Represented by the …, priority 2015, dated 2020)", "tested_on": "cultured human fungiform taste papillae cells (HBO cells)", "test": "Calcium imaging of cultured human fungiform taste papillae (HBO) cells: response frequency, estimation of sweet potency", "assay_type": "cell-based", "excerpt": "In vitro cell-based assay of sweet property. Establishment and maintenance of cultures of human fungiform taste papillae cells (HBO cells): We previously established the current proprietary protocol (Ozdener, H., et al., Chem. Senses, 31(3): 279-90 (2006); Ozdener, M. H., et al., Chem. Senses, 36(7): 601-12 (2011); Ozdener, H., et al., Isolation and culture of human fungiform taste papillae cells, J. Vis. Exp., 2012 May 17;(63):e3730) which allowed us to culture human fungiform taste papillae cells retaining their physiological and molecular characteristics for more than a year. […] The human fungiform taste papillae cells were cultured according to protocols that we have published (Ozdener et al. 2006, Ozdener et al. 2011). Human fungiform taste papillae were removed and immediately placed into an isolation solution followed by enzymatic digestion. Digested fungiform papillae were then gently minced with a surgical razor and seeded on collagen type-1 coated coverslips and incubated at 36° C. in a humidified environment containing 5% CO2. The fungiform taste papillae cells were cultured in Iscove's Modified Dulbecco's medium containing 10% fetal bovine serum, 1:5 ratio of MCDB (Molecular, Cellular, and Developmental Biology) 153 medium, and a triple cocktail of antibiotics (100 U/mL/100 μg/mL, penicillin/streptomycin, and 0.5 μg/mL fungizone). Culture medium was replaced every 5-7 days by one-third of fresh culture medium. Human fungiform taste papillae cells have been maintained in culture for a period of more than 1 year without loss of viability and with retention of the molecular and biochemical properties of acutely isolated taste cells (Ozdener et al., 2011). Calcium imaging: Cultured taste cells grown for 3-4 days glass coverslips which were loaded for 30-60 min with the calcium sensitive dye fura-2 by incubating the cells in Ringer solution (145 mM NaCl, 5 mM KCl, 1 mM MgCl2, 1 mM CaCl2, 1 mM Na-pyruvate, 20 mM Hepes-Na and Cellobiose 15 mM, pH 7.2 with osmolarity adjusted to 300-310 by 5M NaCl) supplemented with […] (Molecular Probes Inc., Eugene, Oreg.) and 10 mg/ml Pluronic® F127 (Molecular Probes Inc.). Coverslips were then placed in a recording chamber and continuously bathed with Ringer solution superfusion. Stimuli were dissolved in Ringer and then pH and osmolarity readjusted if needed. Cells were exposed to sweet ([…]), bitter mixture (PTC (phenylthiocarbamide)) 2mM+Salicin 5 mM+Denatonium 2 mM), guaifenesin (GF, 3 mM) and acetaminophen (APAP, 3 mM), and various sophorolipids stimuli: sophorose, sophorolipid palmitic acid, sophorolipid stearic acid, sophorolipid oleic acid. […]"}
{"compound": "OC[C@H]1O[C@@H](O[C@@H]2[C@@H](O)[C@H](O)[C@@H](CO)O[C@H]2O)[C@H](O)[C@@H](O)[C@@H]1O", "note": "[Sophorose, 2-O-β-D-glucopyranosyl-β-D glucopyranose]", "values": [{"measurement": "%-responsive cells", "setting": "cultured human taste cells, concentration 292 uM", "value": 16.05, "unit": "%"}, {"measurement": "Concentration adjusted response frequency", "setting": "tested at 292 uM, adjusted against sucralose 5 mM", "value": 274.89}]}
